Source: ChEMBL document CHEMBL1201862, “PubChem BioAssay data set” (2004)
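Growth conditions: 96-well plates. Treatment: test compound, 48 hours, 5 concentrations. Analysis: linear interpolation between bracketing concentrations; unreached endpoints set to highest concentration. Abbreviation: GI50, concentration required for 50% inhibition of growth.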 Activity calls are given as the source filed them. No stated cut-off is given here; in the data, active = GI50 up to about 1.1 µM and inactive = higher.

Columns and labels:
Assay in all cases: NCI-60 cell line screen, 48 h
786-0 = test system: 786-0
A498 = test system: A498
A549 = test system: A549
ACHN = test system: ACHN
BT-549 = test system: BT-549
CAKI-1 = test system: CAKI-1
CCRF-CEM = test system: CCRF-CEM
COLO 205 = test system: COLO 205
DU-145 = test system: DU-145
EKVX = test system: EKVX
HCC 2998 = test system: HCC 2998
HCT-116 = test system: HCT-116
HCT-15 = test system: HCT-15
HL-60 = test system: HL-60
HOP-62 = test system: HOP-62
HOP-92 = test system: HOP-92
HT-29 = test system: HT-29
Hs-578T = test system: Hs-578T
IGROV-1 = test system: IGROV-1
K562 = test system: K562
KM12 = test system: KM12
LOX IMVI = test system: LOX IMVI
M14 = test system: M14
MCF7 = test system: MCF7
MDA-MB-231 = test system: MDA-MB-231
MDA-MB-435 = test system: MDA-MB-435
MDA-N = test system: MDA-N
MOLT-4 = test system: MOLT-4
Malme-3M = test system: Malme-3M
NCI-H226 = test system: NCI-H226
NCI-H23 = test system: NCI-H23
NCI-H460 = test system: NCI-H460
NCI-H522 = test system: NCI-H522
NCI/ADR-RES = test system: NCI/ADR-RES
OVCAR-3 = test system: OVCAR-3
OVCAR-4 = test system: OVCAR-4
OVCAR-5 = test system: OVCAR-5
OVCAR-8 = test system: OVCAR-8
PC-3 = test system: PC-3
RPMI-8226 = test system: RPMI-8226
RXF 393 = test system: RXF 393
SF-268 = test system: SF-268
SF-295 = test system: SF-295
SF-539 = test system: SF-539
SK-MEL-28 = test system: SK-MEL-28
SK-MEL-2 = test system: SK-MEL-2
SK-MEL-5 = test system: SK-MEL-5
SK-OV-3 = test system: SK-OV-3
SN12C = test system: SN12C
SNB-19 = test system: SNB-19
SNB-75 = test system: SNB-75
SR = test system: SR
SW-620 = test system: SW-620
T47D = test system: T47D
TK-10 = test system: TK-10
U-251 = test system: U-251
UACC-257 = test system: UACC-257
UACC-62 = test system: UACC-62
UO-31 = test system: UO-31

Question: With `COC1/C=C/C(C)C(C(C)C(OC)C(C)CCC(=O)C(C)C(CCC(=O)O)OC)OC(=O)/C=C/C=C(\C)CC(OC)CC2=CC(=O)O[C@@H](C(C)C(OC)CC(OC)/C=C/C(C)C(OC)C1)[C@H]2O` (stereo partly specified) as the compound, how does the GI50 (786-0) read?
Answer: 0.578 µM (active)

Question: And the GI50 (A498)?
Answer: 0.123 µM (active)

Question: And the GI50 (A549)?
Answer: 0.332 µM (active)

Question: What about the GI50 (ACHN) of the same compound?
Answer: 0.74 µM (active)

Question: And the GI50 (BT-549)?
Answer: 0.661 µM (active)

Question: And the GI50 (CAKI-1)?
Answer: 0.269 µM (active)

Question: And the GI50 (CCRF-CEM)?
Answer: 0.181 µM (active)

Question: What about the GI50 (COLO 205) of the same compound?
Answer: 0.125 µM (active)

Question: And the GI50 (DU-145)?
Answer: 1.71 µM (inactive)

Question: What about the GI50 (EKVX) of the same compound?
Answer: 2.22 µM (inactive)

Question: And the GI50 (HCC 2998)?
Answer: 0.353 µM (active)

Question: What about the GI50 (HCT-116) of the same compound?
Answer: 0.385 µM (active)

Question: What about the GI50 (HCT-15) of the same compound?
Answer: 0.74 µM

Question: What about the GI50 (HL-60) of the same compound?
Answer: 0.185 µM (active)

Question: And the GI50 (HOP-62)?
Answer: 0.631 µM (active)

Question: And the GI50 (HOP-92)?
Answer: 0.372 µM (active)

Question: And the GI50 (HT-29)?
Answer: 0.284 µM (active)

Question: And the GI50 (Hs-578T)?
Answer: 0.499 µM (active)

Question: And the GI50 (IGROV-1)?
Answer: 0.177 µM (active)

Question: What about the GI50 (K562) of the same compound?
Answer: 1.92 µM (inactive)

Question: And the GI50 (KM12)?
Answer: 2.19 µM (inactive)

Question: And the GI50 (LOX IMVI)?
Answer: 0.226 µM (active)

Question: What about the GI50 (M14) of the same compound?
Answer: 0.63 µM (active)

Question: What about the GI50 (MCF7) of the same compound?
Answer: 1.04 µM (active)

Question: And the GI50 (MDA-MB-231)?
Answer: 0.483 µM (active)

Question: What about the GI50 (MDA-MB-435) of the same compound?
Answer: 0.748 µM (active)

Question: What about the GI50 (MDA-N) of the same compound?
Answer: 0.6 µM (active)

Question: What about the GI50 (MOLT-4) of the same compound?
Answer: 0.467 µM (active)

Question: And the GI50 (Malme-3M)?
Answer: 0.592 µM (active)

Question: What about the GI50 (NCI-H226) of the same compound?
Answer: 0.695 µM (active)

Question: And the GI50 (NCI-H23)?
Answer: 1.61 µM (inactive)

Question: And the GI50 (NCI-H460)?
Answer: 0.43 µM (active)

Question: What about the GI50 (NCI-H522) of the same compound?
Answer: 1.37 µM (inactive)

Question: What about the GI50 (NCI/ADR-RES) of the same compound?
Answer: > 5 µM (inactive)

Question: And the GI50 (OVCAR-3)?
Answer: 0.646 µM (active)

Question: And the GI50 (OVCAR-4)?
Answer: 0.971 µM (active)

Question: And the GI50 (OVCAR-5)?
Answer: > 5 µM (inactive)

Question: And the GI50 (OVCAR-8)?
Answer: 2.21 µM (inactive)

Question: What about the GI50 (PC-3) of the same compound?
Answer: 0.454 µM (active)

Question: What about the GI50 (RPMI-8226) of the same compound?
Answer: 0.242 µM (active)

Question: And the GI50 (RXF 393)?
Answer: 0.583 µM (active)

Question: And the GI50 (SF-268)?
Answer: 0.284 µM (active)

Question: What about the GI50 (SF-295) of the same compound?
Answer: 0.859 µM (active)

Question: And the GI50 (SF-539)?
Answer: 0.292 µM (active)

Question: What about the GI50 (SK-MEL-28) of the same compound?
Answer: 0.792 µM (active)

Question: What about the GI50 (SK-MEL-2) of the same compound?
Answer: 0.271 µM (active)

Question: And the GI50 (SK-MEL-5)?
Answer: 0.296 µM (active)

Question: What about the GI50 (SK-OV-3) of the same compound?
Answer: 1.18 µM (inactive)

Question: What about the GI50 (SN12C) of the same compound?
Answer: 0.733 µM (active)

Question: What about the GI50 (SNB-19) of the same compound?
Answer: 0.679 µM (active)

Question: And the GI50 (SNB-75)?
Answer: 0.16 µM (active)

Question: And the GI50 (SR)?
Answer: 0.637 µM (active)

Question: What about the GI50 (SW-620) of the same compound?
Answer: 0.607 µM (active)

Question: And the GI50 (T47D)?
Answer: 2.56 µM (inactive)

Question: And the GI50 (TK-10)?
Answer: 1.65 µM (inactive)

Question: What about the GI50 (U-251) of the same compound?
Answer: 0.249 µM (active)

Question: And the GI50 (UACC-257)?
Answer: 1.24 µM (inactive)

Question: What about the GI50 (UACC-62) of the same compound?
Answer: 0.787 µM (active)

Question: What does the source list for `CC(C#N)(c1ccccc1)N(CCc1ccccc1)C(=O)Oc1ccccc1` (stereo unspecified)?
Answer: GI50 (786-0): 40.6 µM (inactive); GI50 (A498): > 100 µM (inactive); GI50 (A549): > 100 µM (inactive); GI50 (ACHN): > 100 µM (inactive); GI50 (BT-549): > 100 µM (inactive); GI50 (CAKI-1): > 100 µM (inactive); GI50 (CCRF-CEM): > 100 µM (inactive); GI50 (COLO 205): > 100 µM (inactive); GI50 (DU-145): > 100 µM (inactive); GI50 (EKVX): > 100 µM (inactive); GI50 (HCC 2998): > 100 µM (inactive); GI50 (HCT-116): > 100 µM (inactive); GI50 (HCT-15): > 100 µM; GI50 (HL-60): > 100 µM (inactive); GI50 (HOP-62): 50.2 µM (inactive); GI50 (HOP-92): 10.9 µM (inactive); GI50 (HT-29): > 100 µM (inactive); GI50 (Hs-578T): 35.5 µM (inactive); GI50 (IGROV-1): > 100 µM (inactive); GI50 (K562): > 100 µM (inactive); GI50 (KM12): > 100 µM (inactive); GI50 (LOX IMVI): > 100 µM (inactive); GI50 (M14): > 100 µM (inactive); GI50 (MCF7): > 100 µM (inactive); GI50 (MDA-MB-231): > 100 µM (inactive); GI50 (MDA-MB-435): > 100 µM (inactive); GI50 (MDA-N): > 100 µM (inactive); GI50 (MOLT-4): > 100 µM (inactive); GI50 (Malme-3M): > 100 µM (inactive); GI50 (NCI-H226): 38.5 µM (inactive); GI50 (NCI-H23): > 100 µM (inactive); GI50 (NCI-H522): > 100 µM (inactive); GI50 (NCI/ADR-RES): > 100 µM (inactive); GI50 (OVCAR-3): > 100 µM (inactive); GI50 (OVCAR-4): 30.7 µM (inactive); GI50 (OVCAR-5): > 100 µM (inactive); GI50 (OVCAR-8): > 100 µM (inactive); GI50 (PC-3): > 100 µM (inactive); GI50 (RPMI-8226): > 100 µM (inactive); GI50 (RXF 393): 26.7 µM (inactive); GI50 (SF-268): > 100 µM (inactive); GI50 (SF-295): > 100 µM (inactive); GI50 (SF-539): > 100 µM (inactive); GI50 (SK-MEL-28): > 100 µM (inactive); GI50 (SK-MEL-2): > 100 µM (inactive); GI50 (SK-MEL-5): > 100 µM (inactive); GI50 (SK-OV-3): > 100 µM (inactive); GI50 (SN12C): > 100 µM (inactive); GI50 (SNB-19): 44.2 µM (inactive); GI50 (SNB-75): 25.9 µM (inactive); GI50 (SR): > 100 µM (inactive); GI50 (SW-620): > 100 µM (inactive); GI50 (T47D): > 100 µM (inactive); GI50 (TK-10): > 100 µM (inactive); GI50 (U-251): > 100 µM (inactive); GI50 (UACC-257): > 100 µM (inactive); GI50 (UACC-62): > 100 µM (inactive); GI50 (UO-31): > 100 µM (inactive)
